Results published in article PMC3454376, “Salidroside Improves Behavioral and Histological Outcomes and Reduces Apoptosis via PI3K/Akt Signaling after Experimental Traumatic Brain Injury” (PLoS ONE, 2012).

Legend:
[1] = Body weight after CCI; assay type: in vivo, mice; settings: P>0.05
[2] = system: mice subjected to controlled cortical impact injury; assay: TUNEL staining of apoptotic cells; assay type: in vivo; settings: 20 mg/kg ip 10 min after CCI; day 1; vehicle 57.8±6.4%; P<0.01
Method: All animal procedures were approved by the Animal Research Committee at Cheng Hsin General Hospital (Animal permit number […] 101-08), and all procedures complied with the Guide for the Care and Use of Laboratory Animals published by the US National Institutes of Health (NIH Publication No. 85-23, revised 1996). Animals were housed under a 12-h light/dark cycle and at constant temperature (21-25°C) and humidity (45-50%). They were allowed free access to pellet chow and water. TBI in mice was induced by a CCI injury model as previously described. Briefly, 8-week-old male C57BL/6 mice (weighing 22-25 g) were anesthetized through the use of intraperitoneal injection of sodium pentobarbital (65 mg/kg; Rhone Merieux, Harlow, UK) and placed in a stereotaxic frame. A 5 mm craniotomy was performed over the right parietal cortex, centered on the coronal suture and 0.1 mm lateral to the sagittal suture, and injury to dura was avoided. […] Body temperature was monitored throughout the surgery by a rectal probe; temperature was maintained at 37.0±0.5°C using a heated pad. […] To determine the optimal dose of salidroside, a pilot study was performed using 2 different doses (20 and 50 mg/kg) administered 10 min after injury, and neurological deficits and tissue damage were evaluated as the main outcomes. […]

SMILES: OC[C@H]1O[C@@H](OCCc2ccc(O)cc2)[C@H](O)[C@@H](O)[C@@H]1O [SALD, salidroside]
- body weight versus vehicle ([1]; 20 mg/kg ip after CCI): No significant difference
- body weight versus vehicle ([1]; 50 mg/kg ip after CCI): No significant difference
- TUNEL-positive cells (TUNEL-stained nuclei/DAPI-stained nuclei) [2]: 31.0±6.4%
